According to the NIST ThermoML archive (doi:10.1021/je500380x):

Test: mn = molality of the nth substance listed, in mol/kg
Conditions: 100 kPa, Liquid; for viscosity: Falling or rolling sphere viscometry; for mass density: Vibrating tube method; for electrical conductivity: Alternating current cell with electrodes

CCC(=O)OCCN1CCNCC1 [2-(piperazin-1-yl)ethyl propionate] + CCO
Conditions | electrical conductivity [S/m] | mass density [kg/m3] | viscosity [mPa·s]
308.15 K, m1 = 0.05 | – | 779.32 | –
308.15 K, m1 = 0.1 | – | 782.05 | –
308.15 K, m1 = 0.1985 | – | 787.4 | –
308.15 K, m1 = 0.3005 | – | 793.06 | –
308.15 K, m1 = 0.4001 | – | 798.51 | –
308.15 K, m1 = 0.5007 | – | 804.18 | –
308.15 K, m1 = 0.5998 | – | 809.68 | –
308.15 K, m1 = 0.7002 | – | 815.4 | –
308.15 K, m1 = 0.8 | – | 821.15 | –
308.15 K, m1 = 0.8957 | – | 826.9 | –
308.15 K, m1 = 1 | – | 832.84 | 1.841
308.15 K, m1 = 1.198 | – | 844.51 | 2.166
308.15 K, m1 = 1.401 | – | 857.11 | 2.605
308.15 K, m1 = 1.602 | – | 869.1 | 3.182
308.15 K, m1 = 1.8 | – | 881.5 | 3.932
308.15 K, m1 = 2.001 | – | 894.88 | 5.113
308.15 K, m1 = 2.198 | – | 906.86 | 6.285
308.15 K, m1 = 2.397 | – | 920.09 | 7.874
308.15 K, m1 = 2.597 | – | 933.36 | 11.18
308.15 K, m1 = 2.796 | – | 946.62 | 14.4
308.15 K, m1 = 3.006 | – | 960.85 | 20.29
313.15 K, m1 = 0.05 | 0.0197 | 774.92 | 0.856
313.15 K, m1 = 0.1 | 0.0323 | 777.65 | 0.893
313.15 K, m1 = 0.1985 | 0.0513 | 783 | 0.939
313.15 K, m1 = 0.3005 | 0.0674 | 788.67 | 1.003
313.15 K, m1 = 0.4001 | 0.0806 | 794.13 | 1.066
313.15 K, m1 = 0.5007 | 0.0937 | 799.81 | 1.145
313.15 K, m1 = 0.5998 | 0.1048 | 805.32 | 1.225
313.15 K, m1 = 0.7002 | 0.1144 | 811.06 | 1.317
313.15 K, m1 = 0.8 | 0.125 | 816.82 | 1.435
313.15 K, m1 = 0.8957 | 0.1335 | 822.6 | 1.529
313.15 K, m1 = 1 | 0.1433 | 828.55 | 1.655
313.15 K, m1 = 1.198 | 0.158 | 840.27 | 1.94
313.15 K, m1 = 1.401 | 0.1717 | 852.89 | 2.319
313.15 K, m1 = 1.602 | 0.1817 | 864.93 | 2.817
313.15 K, m1 = 1.8 | 0.189 | 877.36 | 3.459
313.15 K, m1 = 2.001 | 0.1932 | 890.78 | 4.464
313.15 K, m1 = 2.198 | 0.1946 | 902.73 | 5.328
313.15 K, m1 = 2.397 | 0.193 | 916.08 | 6.774
313.15 K, m1 = 2.597 | 0.1842 | 929.4 | 9.473
313.15 K, m1 = 2.796 | 0.177 | 942.71 | 12.12
313.15 K, m1 = 3.006 | 0.166 | 956.85 | 16.88
318.15 K, m1 = 0.05 | 0.0198 | 770.48 | 0.787
318.15 K, m1 = 0.1 | 0.0328 | 773.2 | 0.82
318.15 K, m1 = 0.1985 | 0.0525 | 778.55 | 0.86
318.15 K, m1 = 0.3005 | 0.0694 | 784.23 | 0.916
318.15 K, m1 = 0.4001 | 0.0833 | 789.7 | 0.972
318.15 K, m1 = 0.5007 | 0.0972 | 795.39 | 1.043
318.15 K, m1 = 0.5998 | 0.109 | 800.91 | 1.113
318.15 K, m1 = 0.7002 | 0.119 | 806.67 | 1.194
318.15 K, m1 = 0.8 | 0.1309 | 812.45 | 1.299
318.15 K, m1 = 0.8957 | 0.14 | 818.24 | 1.381
318.15 K, m1 = 1 | 0.1514 | 824.21 | 1.492
318.15 K, m1 = 1.198 | 0.168 | 835.97 | 1.741
318.15 K, m1 = 1.401 | 0.1837 | 848.63 | 2.071
318.15 K, m1 = 1.602 | 0.195 | 860.7 | 2.503
318.15 K, m1 = 1.8 | 0.204 | 873.18 | 3.057
318.15 K, m1 = 2.001 | 0.211 | 886.65 | 3.912
318.15 K, m1 = 2.198 | 0.214 | 898.68 | 4.647
318.15 K, m1 = 2.397 | 0.212 | 912.04 | 5.859
318.15 K, m1 = 2.597 | 0.207 | 925.4 | 8.129
318.15 K, m1 = 2.796 | 0.199 | 938.75 | 10.27
318.15 K, m1 = 3.006 | 0.188 | 953.35 | 14.2
323.15 K, m1 = 0.05 | 0.0198 | 765.98 | 0.725
323.15 K, m1 = 0.1 | 0.0331 | 768.7 | 0.755
323.15 K, m1 = 0.1985 | 0.0536 | 774.05 | 0.79
323.15 K, m1 = 0.3005 | 0.0711 | 779.73 | 0.84
323.15 K, m1 = 0.4001 | 0.0856 | 785.21 | 0.889
323.15 K, m1 = 0.5007 | 0.1004 | 790.92 | 0.951
323.15 K, m1 = 0.5998 | 0.1131 | 796.46 | 1.014
323.15 K, m1 = 0.7002 | 0.1239 | 802.23 | 1.086
323.15 K, m1 = 0.8 | 0.137 | 808.02 | 1.178
323.15 K, m1 = 0.8957 | 0.146 | 813.82 | 1.251
323.15 K, m1 = 1 | 0.159 | 819.82 | 1.348
323.15 K, m1 = 1.198 | 0.178 | 831.61 | 1.567
323.15 K, m1 = 1.401 | 0.196 | 844.32 | 1.855
323.15 K, m1 = 1.602 | 0.209 | 856.43 | 2.446
323.15 K, m1 = 1.8 | 0.222 | 868.95 | 2.713
323.15 K, m1 = 2.001 | 0.231 | 882.65 | 3.443
323.15 K, m1 = 2.198 | 0.237 | 894.55 | 4.068
323.15 K, m1 = 2.397 | 0.236 | 907.95 | 5.091
323.15 K, m1 = 2.597 | 0.232 | 921.36 | 6.903
323.15 K, m1 = 2.796 | 0.224 | 934.75 | 8.728
323.15 K, m1 = 3.006 | 0.213 | 949.41 | 12.02
